Test results as given in patent publication US20250170130A1, “MODULATORS OF MYC FAMILY PROTO-ONCOGENE PROTEIN” (Nalo Therapeutics, priority 2022, published 2025).
Like-named read-outs stand apart in the source and are kept apart here.

Columns and labels:
[1] = target: T1, MycC (Homo sapiens, UniProt P01106); assay: Degradation of MycC protein in L363 cells, JESS/Western blot of lysates; assay type: cell-based; conditions: L-363, 24 h; for Dmax at 0.5 µM: read-out: % Degradation of MycC (L-363) 24 h, 0.5 μM; for Dmax at 1 µM: read-out: % Degradation of MycC (L-363) 24 h, 1 μM; for Dmax at 3 µM: read-out: % Degradation of MycC (L-363) 24 h, 3 μM; for Dmax at 6 µM: read-out: % Degradation of MycC (L-363) 24 h, 6 μM
T1 construct: endogenous in cells; host or cells: L363
Method in brief: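 L363 suspension cells were seeded at 1E6 cells per well and exposed to compound (stock 10 mM in DMSO) for 24 hrs. Cells were collected, spun down, rinsed with PBS, lysed in RIPA buffer cocktail on ice, clarified and kept at −80 degrees. Lysate protein was quantified by BCA, and c-myc was measured on JESS by chemiluminescence with tubulin and GAPDH loading controls in the NIR channel.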

[2] = target: T2, MycN (Homo sapiens, UniProt P04198); assay: Degradation of MycN protein in SK-N-BE(2) cells, JESS/Western blot of lysates; assay type: cell-based; conditions: SKNBE2, 24 h; for Dmax at 0.5 µM: read-out: % Degradation of MycN (SKNBE2) 24 h, 0.5 μM; for Dmax at 1 µM: read-out: % Degradation of MycN (SKNBE2) 24 h, 1 μM; for Dmax at 3 µM: read-out: % Degradation of MycN (SKNBE2) 24 h, 3 μM; for Dmax at 6 µM: read-out: % Degradation of MycN (SKNBE2) 24 h, 6 μM
T2 construct: endogenous in cells; host or cells: SK-N-BE(2)
T2 sequence (P04198 1-464): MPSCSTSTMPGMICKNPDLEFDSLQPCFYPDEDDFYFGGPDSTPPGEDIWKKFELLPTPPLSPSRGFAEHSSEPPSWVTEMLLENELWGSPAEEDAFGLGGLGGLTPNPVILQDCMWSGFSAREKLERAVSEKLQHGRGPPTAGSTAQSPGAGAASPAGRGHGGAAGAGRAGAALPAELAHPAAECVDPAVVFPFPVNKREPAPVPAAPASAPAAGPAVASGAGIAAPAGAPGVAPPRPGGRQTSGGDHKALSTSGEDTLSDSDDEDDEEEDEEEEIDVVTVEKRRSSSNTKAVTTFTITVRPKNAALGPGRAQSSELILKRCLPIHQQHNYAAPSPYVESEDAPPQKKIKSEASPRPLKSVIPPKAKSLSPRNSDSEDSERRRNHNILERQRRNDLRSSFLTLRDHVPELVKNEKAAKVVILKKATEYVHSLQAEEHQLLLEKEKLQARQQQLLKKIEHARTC
Method in brief: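 SK-N-BE(2) adherent cells (5E5 per well of a 6 well dish) were grown 24 hrs, then exposed to compounds diluted 1 in 20 in media, with DMSO controls, for 24 hrs. Cells were scraped, pelleted, PBS washed and lysed in RIPA buffer cocktail; after BCA protein quantitation, n-myc was detected by chemiluminescence on JESS/Western blot with tubulin and GAPDH loading controls read in the near infra red channel.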

T1 sequence (P01106 whole entry): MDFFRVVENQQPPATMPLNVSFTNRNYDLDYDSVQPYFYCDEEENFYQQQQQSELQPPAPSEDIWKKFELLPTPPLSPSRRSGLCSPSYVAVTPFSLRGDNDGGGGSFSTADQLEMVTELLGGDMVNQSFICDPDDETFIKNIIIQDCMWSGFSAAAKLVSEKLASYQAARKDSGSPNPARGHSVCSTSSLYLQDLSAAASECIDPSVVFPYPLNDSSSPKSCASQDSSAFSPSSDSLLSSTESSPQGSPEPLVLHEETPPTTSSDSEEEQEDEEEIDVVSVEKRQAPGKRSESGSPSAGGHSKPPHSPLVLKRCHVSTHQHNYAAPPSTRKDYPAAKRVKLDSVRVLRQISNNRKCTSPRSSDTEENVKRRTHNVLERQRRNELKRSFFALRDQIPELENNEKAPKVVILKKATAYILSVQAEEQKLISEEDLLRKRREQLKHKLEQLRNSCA

SMILES	Dmax at 0.5 µM ([1]; L-363 cells, 24 h) [%]	Dmax at 1 µM ([1]; L-363 cells, 24 h, 1 μM) [%]	Dmax at 3 µM ([1]; L-363 cells, 24 h, 3 μM) [%]	Dmax at 6 µM ([1]; L-363 cells, 24 h, 6 μM) [%]	Dmax at 0.5 µM ([2]; SKNBE2 cells, 24 h, 0.5 μM) [%]	Dmax at 1 µM ([2]; SKNBE2 cells, 24 h, 1 μM) [%]	Dmax at 3 µM ([2]; SKNBE2 cells, 24 h, 3 μM) [%]	Dmax at 6 µM ([2]; SKNBE2 cells, 24 h, 6 μM) [%]	Dmax at 1 µM [1] [%]	Dmax at 3 µM [1] [%]	Dmax at 6 µM [1] [%]	Dmax at 0.5 µM [2] [%]	Dmax at 1 µM [2] [%]	Dmax at 3 µM [2] [%]	Dmax at 6 µM [2] [%]
CN(C)C[C@H]1CCN(c2nccc(Nc3cc(C4CCCC4)[nH]n3)n2)C1 [Compound 111, N-(5-Cyclopentyl-1H-pyrazol-3-yl)-2-[(3R)-3-[(dimethylamino)methyl]pyrrolidin-1-yl]pyrimidin-4-amine]	< 20	< 20	< 20	< 20	< 20	< 20	< 20	50 to 79							
CNCC12CC(C1)N(c1nccc(Nc3cc(C4CCCC4)ncn3)n1)C2 [Compound 112, N-(6-Cyclopentylpyrimidin-4-yl)-2-[4-(methylaminomethyl)-2-azabicyclo[2.1.1]hexan-2-yl]pyrimidin-4-amine]				50 to 79			50 to 79	80 to 100							
NCC12CCC(C1)N(c1nccc(Nc3cc(C4CC4)[nH]n3)n1)C2 (stereo not drawn) [Compound 113, 2-[4-(Aminomethyl)-2-azabicyclo[2.2.1]heptan-2-yl]-N-(5-cyclopropyl-1H-pyrazol-3-yl)pyrimidin-4-amine]	80 to 100	80 to 100	80 to 100	80 to 100	80 to 100	80 to 100	80 to 100	80 to 100							
CNCC12CCC(C1)N(c1nccc(Nc3cc(C4CCCC4)[nH]n3)n1)C2 (stereo not drawn) [Compound 114]	80 to 100	80 to 100	80 to 100	80 to 100	80 to 100	80 to 100	80 to 100	80 to 100							
NCC1CN(c2nccc(Nc3cc(C4CCCC4)[nH]n3)n2)CC(F)(F)C1 (stereo not drawn) [Compound 115, 2-[5-(Aminomethyl)-3,3-difluoro-1-piperidyl]-N-(5-cyclopentyl-1H-pyrazol-3-yl)pyrimidin-4-amine]			80 to 100	80 to 100	20 to 49	50 to 79	80 to 100	80 to 100							
NC[C@@H]1CN(c2nccc(Nc3cc(C4CCCC4)[nH]n3)n2)CCO1 [Compound 116, 2-[(2R)-2-(Aminomethyl)morpholin-4-yl]-N-(5-cyclopentyl-1H-pyrazol-3-yl)pyrimidin-4-amine]		< 20	80 to 100	80 to 100	< 20	< 20	80 to 100	80 to 100							
CNC[C@@H]1CN(c2nccc(Nc3cc(C4CCCC4)[nH]n3)n2)CCO1 [Compound 118, N-(5-Cyclopentyl-1H-pyrazol-3-yl)-2-[(2R)-2-(methylaminomethyl)morpholin-4-yl]pyrimidin-4-amine]		< 20	< 20		< 20	20 to 49	< 20	80 to 100							
N#CC1(CN)CCCN(c2nccc(Nc3cc(C4CC4)[nH]n3)n2)C1 (stereo not drawn) [Compound 119, 3-(Aminomethyl)-1-[4-[(5-cyclopropyl-1H-pyrazol-3-yl)amino]pyrimidin-2-yl]piperidine-3-carbonitrile]									50 to 79	80 to 100	80 to 100	50 to 79	50 to 79	80 to 100	80 to 100
NCC1CN(c2nccc(Nc3cc(C4CC4)[nH]n3)n2)CC(F)(F)C1 (stereo not drawn) [Compound 121, 2-[5-(Aminomethyl)-3,3-difluoro-1-piperidyl]-N-(5-cyclopropyl-1H-pyrazol-3-yl)pyrimidin-4-amine]									80 to 100	80 to 100	80 to 100	50 to 79	50 to 79	80 to 100	80 to 100
NC[C@@H]1CN(c2nccc(Nc3cc(C4CC4)[nH]n3)n2)C[C@@H]1F [Compound 122-1, 2-[(3R,4R)-3-(Aminomethyl)-4-fluoro-pyrrolidin-1-yl]-N-(5-cyclopropyl-1H-pyrazol-3-yl)pyrimidin-4-amine]	20 to 49	50 to 79	80 to 100	80 to 100	20 to 49	20 to 49	20 to 49	80 to 100							
NC[C@H]1CN(c2nccc(Nc3cc(C4CC4)[nH]n3)n2)C[C@H]1F [Compound 122-2, 2-[(3S,4S)-3-(Aminomethyl)-4-fluoro-pyrrolidin-1-yl]-N-(5-cyclopropyl-1H-pyrazol-3-yl)pyrimidin-4-amine]	20 to 49	50 to 79	80 to 100	80 to 100		< 20	50 to 79	80 to 100							
NC[C@@H]1CN(c2nccc(Nc3cc(C4CCCC4)[nH]n3)n2)C[C@@H]1F [Compound 123-1, 2-[(3R,4R)-3-(Aminomethyl)-4-fluoro-pyrrolidin-1-yl]-N-(5-cyclopentyl-1H-pyrazol-3-yl)pyrimidin-4-amine]	< 20	20 to 49	80 to 100	80 to 100		< 20	50 to 79	80 to 100							
NC[C@H]1CN(c2nccc(Nc3cc(C4CCCC4)[nH]n3)n2)C[C@H]1F [Compound 123-2, 2-[(3S,4S)-3-(Aminomethyl)-4-fluoro-pyrrolidin-1-yl]-N-(5-cyclopentyl-1H-pyrazol-3-yl)pyrimidin-4-amine]	20 to 49	50 to 79	80 to 100	80 to 100	20 to 49	20 to 49	50 to 79	80 to 100							
NCC1CN(c2nccc(Nc3cc(C4CC4)[nH]n3)n2)CC1(F)F (stereo not drawn) [Compound 124, 2-[4-(Aminomethyl)-3,3-difluoro-pyrrolidin-1-yl]-N-(5-cyclopropyl-1H-pyrazol-3-yl)pyrimidin-4-amine]		< 20		80 to 100	20 to 49	20 to 49	20 to 49	80 to 100							
NCC1CN(c2nccc(Nc3cc(C4CCCC4)[nH]n3)n2)CC1(F)F (stereo not drawn) [Compound 125, 2-[4-(Aminomethyl)-3,3-difluoro-pyrrolidin-1-yl]-N-(5-cyclopentyl-1H-pyrazol-3-yl)pyrimidin-4-amine]	20 to 49	20 to 49		80 to 100	20 to 49	20 to 49	50 to 79	80 to 100							
O=C1c2ccccc2C(=O)N1CC12CC(CN(c3nccc(Nc4cc(C5CC5)[nH]n4)n3)C1)C2 [Compound 126, 2-[[3-[4-[(5-Cyclopropyl-1H-pyrazol-3-yl)amino]pyrimidin-2-yl]-3-azabicyclo[3.1.1]heptan-1-yl]methyl]isoindoline-1,3-dione]	80 to 100	80 to 100	80 to 100	80 to 100	80 to 100	80 to 100	80 to 100	80 to 100							
